Results taken from US20160000750A1, “COMBINATION OF EGCG OR METHYLATED EGCG AND A PDE INHIBITOR” (KYUSHU UNIVERSITY, NATIONAL UNIVERSITY CORPORATION, priority 2010, published 2016).

Assays:
[1] = test system: human acute myeloid leukemia cell line, HL60; assay: Involvement of 67LR (anti-67LR antibody MLuc5) in cell-killing and cytostatic activity, HL60; format: cell-based; conditions: HL60, 96-well; vardenafil 5 μM, EGCG 5 μM; 96 hours; without anti-67LR antibody (isotype control mouse IgM)
Description: A trypan blue staining solution was prepared by suspending trypan blue in PBS at a concentration of 1% and was used in investigation of the anti-cancer activity of a combination of EGCG and vardenafil by trypan blue assay. The PBS used was prepared by dissolving 8.0 g of NaCl, 0.2 g of KCl, 1.15 g of Na2HPO4, and 0.2 g of KH2PO4 in 1 L of ultrapure water, followed by autoclave sterilization.
A human multiple myeloma cell line, U266, and a human acute myeloid leukemia cell line, HL60, adjusted to be 5×10^4 cells/mL (U266) and 1×10^4 cells/mL (HL60), respectively, in an RPMI 1640 medium supplemented with 1% FCS were seeded in a 96-well plate (Falcon Co., Ltd.). Vardenafil was added thereto at a final concentration of 5 μM. Immediately after the addition, an anti-67LR monoclonal antibody, MLuc5 (Abcam PLC), was added thereto at a final concentration of 20 μg/mL. In the group of adding an isotype control antibody, mouse IgM (Cosmo Bio Co., Ltd., Tokyo) was added at a final concentration of 20 μg/mL. […]
The plate was returned to the incubator immediately after the addition of EGCG, followed by culturing for 96 hours. […] After 10 minutes, the number of the cells was counted with a hemocytometer. Unstained cells were deemed as viable cells, and the cell viability was determined as a ratio of the number of unstained cells in trypan blue staining to the total number of cells. […]

[2] = test system: mouse plasmacytoma cell line, MPC11, transplanted to Balb/c mice; assay: Tumor formation of MPC11 transplanted to Balb/c mice; format: in vivo; conditions: MPC11 s.c., EGCG 15 mg/kg i.p., vardenafil 5 mg/kg i.p., once every two days from day 4
Description: Furthermore, 5-week old female balb/c mice were preliminarily bred for one week and were then inoculated with a mouse multiple myeloma cell line, MPC11, by subcutaneous injection, in the right back, of […] of a suspension of 5×10^7 cells/mL of the cells in an RPMI medium. After 4 days from the inoculation, EGCG (15 mg/kg i.p.) and vardenafil (5 mg/kg i.p.) were administered once every two days, and the tumor volume was measured with varnier clipers. In the graph, EGCG and VDN indicate single administration of EGCG and vardenafil, respectively, and EGCG/Vardenafil indicates combination administration of EGCG and vardenafil.

## (−)-epigallocatechin-3-O-gallate [EGCG]
[1]
  cell viability (cell-killing activity): any cytotoxicity was not observed
[2]
  tumor formation (tumor volume): any inhibitory action on tumor formation of the mouse plasmacytoma cell line was not observed
